Source: US20020123485A1, “Epoxy steroidal aldosterone antagonist and beta-adrenergic antagonist combination therapy for treatment of congestive heart failure” (priority 2000, published 2002)

Key:
progesterone receptor = target: T1, progesterone receptor (Homo sapiens, UniProt P06401); assay: binding affinity for the progesterone receptor relative to spironolactone
T1 sequence (P06401 1-933): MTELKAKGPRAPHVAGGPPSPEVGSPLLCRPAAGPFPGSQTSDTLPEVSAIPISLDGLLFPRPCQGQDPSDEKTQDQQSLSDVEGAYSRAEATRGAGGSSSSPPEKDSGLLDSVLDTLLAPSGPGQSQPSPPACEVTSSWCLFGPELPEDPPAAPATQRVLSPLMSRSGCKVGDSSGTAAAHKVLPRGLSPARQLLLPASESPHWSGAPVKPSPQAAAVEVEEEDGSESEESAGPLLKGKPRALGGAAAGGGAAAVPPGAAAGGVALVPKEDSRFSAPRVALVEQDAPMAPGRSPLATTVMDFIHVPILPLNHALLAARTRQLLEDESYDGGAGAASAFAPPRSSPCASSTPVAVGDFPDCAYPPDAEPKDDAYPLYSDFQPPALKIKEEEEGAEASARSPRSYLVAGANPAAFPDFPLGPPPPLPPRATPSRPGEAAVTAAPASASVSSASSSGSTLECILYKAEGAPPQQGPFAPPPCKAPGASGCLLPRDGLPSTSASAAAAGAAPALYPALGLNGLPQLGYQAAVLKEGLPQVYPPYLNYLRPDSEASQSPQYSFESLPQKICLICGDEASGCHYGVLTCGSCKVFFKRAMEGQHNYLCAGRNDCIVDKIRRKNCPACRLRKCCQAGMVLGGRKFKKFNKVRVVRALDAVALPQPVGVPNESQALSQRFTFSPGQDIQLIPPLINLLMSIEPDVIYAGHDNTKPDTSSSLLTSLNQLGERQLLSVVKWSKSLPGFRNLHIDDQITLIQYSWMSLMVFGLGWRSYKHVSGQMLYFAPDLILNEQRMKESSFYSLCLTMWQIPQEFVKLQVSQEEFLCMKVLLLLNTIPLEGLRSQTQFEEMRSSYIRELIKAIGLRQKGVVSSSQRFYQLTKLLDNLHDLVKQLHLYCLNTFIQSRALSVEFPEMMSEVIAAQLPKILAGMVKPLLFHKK

[1] = tested on: patients with mild to moderate hypertension; assay: Example 19 clinical study: eplerenone versus placebo co-administered with a calcium-channel blocker; format: in vivo, human
From the text: This multicenter, randomized, double-blind, placebo-controlled, placebo run-in, parallel group trial involving a minimum of 120 randomized patients with hypertension (seated diastolic blood pressure [seDBP] ≧95 mmHg and <110 mmHg and seated systolic BP [seSBP] <180 mmHg while taking a CCB) will consist of a one- to two-week pretreatment screening period followed by a two- to four-week single-blind placebo run-in period and an 8-week double-blind treatment period. Eligible patients will be patients currently receiving a CCB as part of their antihypertensive medication. […] The dose will not be changed for patients with adequate BP control. […] If the dose has been increased at Week 2, the patient will be reassessed at Week 6. […] If BP is uncontrolled at Week 6 and the dose has been increased at Week 2 or Week 4, the patient must be withdrawn from the study. If symptomatic hypotension (i.e., lightheadedness, dizziness, or syncope associated with low BP) occurs at any time during the study, or if DBP is ≧110 mmHg or SBP is ≧180 mmHg at any time during the trial, the patient must be withdrawn. Patients will receive study medication for a total of 8 weeks.
The study will consist of a one- to two-week pretreatment screening period followed by a two- to four-week single-blind placebo run-in treatment period, prior to randomization to an eight-week double-blind treatment period.
Eligible patients will be either currently receiving a CCB alone, or receiving a CCB as part of their antihypertensive medication. […] The dose will not be changed for patients with adequate BP control. […] If the dose has been increased at Week 2, the patient will be reassessed at Week 6. The dose of study medication will not be changed for patients with adequate BP control. […] If BP is uncontrolled at Week 6 and the dose has been increased at Week 2 or Week 4, the patient must be withdrawn from the study. The dose of study medication will not be changed for patients with adequate BP control. If symptomatic hypotension (i.e., lightheadedness, dizziness, or syncope associated with low BP) occurs at any time during the study, or if DBP is ≧110 mmHg or SBP is ≧180 mmHg at any time during the study, the patient must be withdrawn. Patients will receive study medication for a total of eight weeks.
Patients will return to the clinic for evaluations at Weeks 0, 2, 4, 6, 8, and 9. Heart rate, BP, adverse events and concomitant medication will be assessed at each visit. Hematology and biochemistry evaluations and urinalysis for safety will be at Weeks 0, 8, and 9. Serum potassium levels will be determined at Weeks 0, 2, 4, 6, 8, and 9. Plasma renin, serum aldosterone, and plasma cortisol will be determined at Weeks 0 and 8. A 12-lead electrocardiogram and physical examination will be done at screening and at Week 9.
All randomized patients with at least one post-baseline assessment will be included in the efficacy analysis (intent-to-treat population). In each analysis, missing values will be imputed using the last observation carried forward (LOCF) method. The analysis of safety will focus on all randomized patients who took at least one dose of study medication (safety population).
BP evaluations will be analyzed at each visit using two-way analysis of covariance (ANCOVA) with the baseline measurement as the covariate and treatment and center as factors. The response variable will be the change from baseline. […]

[2] = tested on: rats made hypertensive by renal artery clip; assay: Assay C: hypertensive rat model; format: in vivo; details: combination of beta-adrenergic antagonist and eplerenone versus either component alone; 12 and 24 weeks
From the text: Male rats are made hypertensive by placing a silver clip with an aperture of 240 microns on the left renal artery, leaving the contralateral kidney untouched. Sham controls undergo the same procedure but without attachment of the clip. One week prior to the surgery, animals to be made hypertensive are divided into separate groups and drug treatment is begun. […] After 12 and 24 weeks, systolic and diastolic blood pressure, left ventricular end diastolic pressure, left ventricular dP/dt, and heart rate are evaluated. The hearts are removed, weighed, measured and fixed in formalin. Collagen content of heart sections are evaluated using computeried image analysis of picrosirius stained sections.

[3] = tested on: rats with ligated left anterior descending coronary artery; assay: Assay D: myocardial infarction rat model; format: in vivo; details: combination of beta-adrenergic antagonist and eplerenone versus either component alone; six weeks
From the text: Male rats are anesthetized and the heart is exteriorized following a left sided thoracotomy. The left anterior descending coronary artery is ligated with a suture. The thorax is closed and the animal recovers. Sham animals have the suture e passed through without ligation. One week prior to the surgery, animals to undergo infarction are divided into separate groups and drug treatment is begun. […] After six weeks, systolic and diastolic blood pressure, left ventricular end diastolic pressure, left ventricular dP/dt, and heart rate are evaluated. The hearts are removed, weighed, measured and fixed in formalin. Collagen content of heart sections are evaluated using computerized image analysis of picrosirius stained sections.

[4] = tested on: myocardial fibrosis in animal models; details: cited from earlier work
[5] = CCB and eplerenone compared to CCB and placebo
[6] = eight weeks, eplerenone and CCB versus CCB and placebo

SMILES	binding affinity for the progesterone receptor, % that of spironolactone (progesterone receptor)	active renin levels [1, 5]	aldosterone levels [1, 5]	change in mean diastolic blood pressure [1, 6]	systolic blood pressure [1, 6]	serious adverse events ([1]; eplerenone added to CCB therapy)	cardiac performance [2]	cardiac performance [3]	myocardial fibrosis [4]
COC(=O)[C@@H]1CC2=CC(=O)CC[C@]2(C)[C@@]23O[C@@H]2C[C@@]2(C)[C@@H](CC[C@@]24CCC(=O)O4)[C@H]13 [eplerenone, Pregn-4-ene-7,21-dicarboxylic acid, 9,11-epoxy-17-hy-droxy-3-oxo-, γ-lactone, methyl ester, (7α, 11α, 17β)-]	less than 1%	greater increase	greater increase	greater for the dual therapy group, compared to monotherapy, but this difference did not reach statistical significance	significant reduction	no serious adverse events reported	improvments in cardiac performance	improvements in cardiac performance	–
CC(=O)S[C@@H]1CC2=CC(=O)CC[C@]2(C)[C@H]2CC[C@@]3(C)[C@@H](CC[C@@]34CCC(=O)O4)[C@H]12 [spironolactone]	–	–	–	–	–	–	–	–	prevents myocardial fibrosis
